Assay results reported in US11919887B2, “Substituted tetrahydrofurans as modulators of sodium channels” (Vertex Pharmaceuticals Incorporated, priority 2019, dated 2024).
Where two headings read alike, the source gives them in different places.

Target: human Nav 1.8 (Homo sapiens, UniProt Q9Y5Y9)
Test: E-VIPR assay detecting and measuring Nav inhibition (HEK cells expressing truncated human Nav 1.8)
Assay type: cell-based
Conditions: read-out: IC50
Text: Sodium ion channels are voltage-dependent proteins that can be activated by inducing membrane voltage changes by applying electric fields. The electrical stimulation instrument and methods of use, referred to as E-VIPR, are described in International Publication No. WO 2002/008748 A3 and C.-J. Huang et al. Characterization of voltage-gated sodium channel blockers by electrical stimulation and fluorescence detection of membrane potential, 24 Nature Biotech. 439-46 (2006), both of which are incorporated by reference in their entirety. The instrument comprises a microtiter plate handler, an optical system for exciting the coumarin dye while simultaneously recording the coumarin and oxonol emissions, a waveform generator, a current- or voltage-controlled amplifier, and parallel electrode pairs that are inserted into assay plate wells. Under integrated computer control, this instrument passes user-programmed electrical stimulus protocols to cells within the wells of the microtiter plate.
16-20 hours prior to running the assay on E-VIPR, HEK cells expressing a truncated form of human Nav 1.8 with full channel activity were seeded into microtiter 384-well plates, pre-coated with matrigel, at a density of 25,000 cells per well. 2.5-5% KIR2.1 Bacmam virus was added to the final cell suspension before seeding into cell plates. HEK cells were grown in Dulbecco's Modified Eagle's Medium (DMEM) supplemented with 10% FBS (Fetal Bovine Serum, qualified; Sigma #F4135), 1% NEAA (Non-Essential Amino Acids, Gibco #11140), 1% HEPES (Gibco #15630), 1% Pen-Strep (Penicillin-Streptomycin; Gibco #15140) and 5 μg/ml Blasticidin (Gibco #R210-01). Cells were expanded in vented cap cell culture flasks, with 90-95% humidity and 5% CO2.
Human Serum (HS, Millipore #S1P1-01KL, or Sigma SLBR5469V and SLBR5470V as a 50%/50% mixture, for 25% assay final concentration)
Bath1 Buffer: • Sodium Chloride 160 mM (9.35 g/L), Potassium Chloride, 4.5 mM (0.335 g/L), Glucose 10 mM (1.8 g/L), Magnesium Chloride (Anhydrous) 1 mM (0.095 g/L), Calcium Chloride 2 mM (0.222 g/L), HEPES 10 mM (2.38 g/L) in water.
Na/TMA Cl Bath1 Buffer: • Sodium Chloride 96 mM (5.61 g/L), Potassium Chloride 4.5 mM (0.335 g/L), Tetramethylammonium (TMA)-Cl 64 mM (7.01 g/L), Glucose 10 mM (1.8 g/L), Magnesium Chloride (Anhydrous) 1 mM (0.095 g/L), Calcium Chloride 2 mM (0.222 g/L) HEPES 10 mM (2.38 g/L) in water.
Hexyl Dye Solution (2× concentration): • Bath1 Buffer containing 0.5% β-cyclodextrin (made fresh prior to each use, Sigma #C4767), 8 μM CC2-DMPE and 2 μM DiSBAC6(3). The solution was made by adding 10% Pluronic F127 stock equal to combined volumes of CC2-DMPE and DiSBAC6(3). The order of preparation was first mix Pluronic and CC2-DMPE, then add DiSBAC6(3), then while vortexing add Bath1/β-Cyclodextrin.
Compound Loading Buffer (2×concentration): Na/TMA Cl Bath1 Buffer containing HS (omitted in experiments run in the absence of human serum (HS)) 50%, VABSC-1 1 mM, BSA 0.2 mg/ml (in Bath-1), KCl 9 mM, DMSO 0.75%.
Assay Protocol (7 Key Steps): • 1) To reach the final concentration in each well, 400 nL of each compound was pre-spotted (in neat DMSO) into polypropylene compound plates at 250×desired final concentration from an intermediate stock concentration of 0.075 mM, in an 11 point dose response, 3-fold dilution, resulting in a top dose of 300 nM final concentration in the cell plate. Vehicle control (neat DMSO), and positive control (an established Nav1.8 inhibitor, 25 μM final in assay in DMSO) were added manually to the outermost columns of each plate respectively. The compound plate was backfilled with 45 μL per well of Compound Loading Buffer resulting in a 250 fold dilution of compound following a 1:1 transfer of compound into the cell plate (see Step 6). Final DMSO concentration for all wells in the assay was 0.625% (0.75% DMSO was supplemented to the Compound Loading Buffer for a final DMSO concentration of 0.625%). […]

[1] = in the Presence of Human Serum in the E-VIPR Assay
[2] = in the Absence of Human Serum in the E-VIPR Assay

Sequence of human Nav 1.8 (Q9Y5Y9 whole entry, looked up, the tested form may be a part): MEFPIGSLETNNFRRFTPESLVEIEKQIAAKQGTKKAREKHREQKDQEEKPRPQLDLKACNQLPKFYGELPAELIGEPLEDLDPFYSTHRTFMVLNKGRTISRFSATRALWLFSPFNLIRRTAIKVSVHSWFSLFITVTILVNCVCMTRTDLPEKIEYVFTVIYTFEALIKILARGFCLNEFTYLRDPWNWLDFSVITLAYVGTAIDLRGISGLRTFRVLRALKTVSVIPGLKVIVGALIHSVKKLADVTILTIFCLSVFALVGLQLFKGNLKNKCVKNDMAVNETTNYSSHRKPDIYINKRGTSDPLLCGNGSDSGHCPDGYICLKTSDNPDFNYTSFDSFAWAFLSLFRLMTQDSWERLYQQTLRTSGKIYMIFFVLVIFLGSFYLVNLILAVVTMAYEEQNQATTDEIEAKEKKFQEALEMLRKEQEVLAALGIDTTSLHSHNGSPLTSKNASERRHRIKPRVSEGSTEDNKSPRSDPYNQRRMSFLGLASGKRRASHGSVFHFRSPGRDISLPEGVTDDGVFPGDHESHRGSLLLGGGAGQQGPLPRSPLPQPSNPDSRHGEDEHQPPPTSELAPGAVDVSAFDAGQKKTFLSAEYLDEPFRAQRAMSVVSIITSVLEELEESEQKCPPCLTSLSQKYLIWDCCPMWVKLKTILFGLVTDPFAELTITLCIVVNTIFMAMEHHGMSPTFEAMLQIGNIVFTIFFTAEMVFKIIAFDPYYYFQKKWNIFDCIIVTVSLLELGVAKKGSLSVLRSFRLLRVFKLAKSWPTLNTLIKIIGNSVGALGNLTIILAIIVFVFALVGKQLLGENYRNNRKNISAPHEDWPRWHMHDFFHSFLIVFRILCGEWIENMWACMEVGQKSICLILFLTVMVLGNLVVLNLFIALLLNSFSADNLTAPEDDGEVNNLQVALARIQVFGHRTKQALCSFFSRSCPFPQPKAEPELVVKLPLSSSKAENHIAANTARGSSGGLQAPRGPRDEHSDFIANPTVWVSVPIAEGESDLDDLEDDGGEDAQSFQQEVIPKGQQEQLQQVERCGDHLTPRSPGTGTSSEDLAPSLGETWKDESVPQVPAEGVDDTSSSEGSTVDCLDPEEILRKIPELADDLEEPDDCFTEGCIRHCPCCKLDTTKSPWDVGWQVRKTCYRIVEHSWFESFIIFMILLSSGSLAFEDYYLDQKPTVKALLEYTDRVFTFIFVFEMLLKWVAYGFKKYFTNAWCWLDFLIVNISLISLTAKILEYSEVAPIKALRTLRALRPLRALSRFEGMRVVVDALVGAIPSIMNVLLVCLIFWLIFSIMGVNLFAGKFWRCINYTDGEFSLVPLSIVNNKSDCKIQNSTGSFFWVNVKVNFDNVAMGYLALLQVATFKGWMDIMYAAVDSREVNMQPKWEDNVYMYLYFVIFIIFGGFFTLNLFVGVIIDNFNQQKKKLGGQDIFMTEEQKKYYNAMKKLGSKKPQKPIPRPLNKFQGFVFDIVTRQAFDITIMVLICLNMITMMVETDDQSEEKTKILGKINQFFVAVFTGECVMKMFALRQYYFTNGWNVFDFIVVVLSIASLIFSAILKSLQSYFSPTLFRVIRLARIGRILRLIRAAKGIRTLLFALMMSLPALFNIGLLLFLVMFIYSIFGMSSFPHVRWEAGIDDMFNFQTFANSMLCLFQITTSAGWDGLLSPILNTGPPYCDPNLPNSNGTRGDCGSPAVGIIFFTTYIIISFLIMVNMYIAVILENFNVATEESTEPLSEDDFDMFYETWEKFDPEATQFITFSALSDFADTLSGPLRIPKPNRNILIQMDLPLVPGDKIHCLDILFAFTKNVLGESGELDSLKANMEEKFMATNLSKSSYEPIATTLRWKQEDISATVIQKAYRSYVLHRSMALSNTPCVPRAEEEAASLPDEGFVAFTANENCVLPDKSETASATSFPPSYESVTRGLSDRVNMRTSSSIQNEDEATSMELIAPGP

COc1c([C@@H]2[C@@H](C(=O)Nc3ccnc(C(N)=O)c3)O[C@](C)(C(F)(F)F)[C@@H]2C2CC2)ccc(F)c1F (single isomer, unassigned) [Compound 94]
IC50 [1]: < 10 nM

COc1c([C@H]2[C@H](C(=O)Nc3ccnc(C(N)=O)c3)O[C@@](C)(C(F)(F)F)[C@H]2C2CC2)ccc(F)c1F (single isomer, unassigned) [Compound 95]
IC50 [1]: > 1000 nM

COc1c([C@@H]2[C@@H](C(=O)Nc3ccnc(C(N)=O)c3)OC(C)(C)[C@H]2C)ccc(F)c1F (single isomer, unassigned) [Compound 101]
IC50 [1]: > 1000 nM

COc1c([C@@H]2[C@@H](C)C(C)(C)O[C@H]2C(=O)Nc2ccnc(C(N)=O)c2)ccc(F)c1F (single isomer, unassigned) [Compound 102]
IC50 [1]: > 1000 nM

COc1c([C@@H]2[C@@H](C)C(C)(C)O[C@H]2C(=O)Nc2ccnc(C(N)=O)c2)ccc(F)c1F (single isomer, unassigned) [Compound 103]
IC50 [1]: > 1000 nM

COc1c([C@@H]2[C@@H](C(=O)Nc3ccnc(C(N)=O)c3)OC(C)(C)[C@H]2C)ccc(F)c1F (single isomer, unassigned) [Compound 104]
IC50 [1]: > 1000 nM

COc1c([C@H]2[C@H](C(=O)Nc3ccnc(C(N)=O)c3)OC(C)(C)[C@H]2C)ccc(F)c1F (single isomer, unassigned) [Compound 105]
IC50 [1]: 10 to 100 nM

COc1c([C@@H]2[C@@H](C(=O)Nc3ccnc(C(N)=O)c3)OC(C)(C)[C@@H]2C)ccc(F)c1F (single isomer, unassigned) [Compound 106]
IC50 [1]: > 1000 nM

COc1c([C@H]2C[C@@H](C(F)(F)F)O[C@@H]2C(=O)Nc2ccnc(C(N)=O)c2)ccc(F)c1C (single isomer, unassigned) [Compound 111]
IC50 [1]: > 1000 nM

COc1c([C@@H]2C[C@H](C(F)(F)F)O[C@H]2C(=O)Nc2ccnc(C(N)=O)c2)ccc(F)c1C (single isomer, unassigned) [Compound 112]
IC50 [1]: 100 to 1000 nM

COc1c([C@@H]2[C@@H](C(=O)Nc3ccnc(C(N)=O)c3)O[C@](C)(C(F)(F)F)[C@@H]2C)ccc(C(F)F)c1F (single isomer, unassigned) [Compound 135]
IC50 [2]: > 1000 nM

COc1c([C@H]2[C@H](C(=O)Nc3ccnc(C(N)=O)c3)O[C@@](C)(C(F)(F)F)[C@H]2C)ccc(C(F)F)c1F (single isomer, unassigned) [Compound 136]
IC50 [2]: < 10 nM

COc1c([C@H]2[C@H](C(=O)Nc3ccnc(C(N)=O)c3)O[C@@](C)(C(F)(F)F)[C@H]2C)cccc1C(F)(F)F (single isomer, unassigned) [compound 42]
IC50 [2]: < 10 nM

COc1c([C@@H]2[C@@H](C(=O)Nc3ccnc(C(N)=O)c3)O[C@](C)(C(F)(F)F)[C@@H]2C)cccc1C(F)(F)F (single isomer, unassigned) [compound 43]
IC50 [2]: 100 to 1000 nM

C[C@@H]1[C@H](c2ccc(F)c(F)c2OC(F)F)[C@@H](C(=O)Nc2cccc(C(N)=O)c2)O[C@]1(C)C(F)(F)F (single isomer, unassigned) [compound 51]
IC50 [1]: > 1000 nM

C[C@H]1[C@@H](c2ccc(F)c(F)c2OC(F)F)[C@H](C(=O)Nc2cccc(C(N)=O)c2)O[C@@]1(C)C(F)(F)F (single isomer, unassigned) [compound 52]
IC50 [1]: < 10 nM

C[C@@H]1[C@H](c2ccc(F)cc2OC(F)F)[C@@H](C(=O)Nc2ccnc(C(N)=O)c2)O[C@]1(C)C(F)(F)F (stereo in doubt) [Compound 1, rel-(2S,3R,4R,5S)-4-[[3-[2-(difluoromethoxy)-4-fluoro-phenyl]-4,5-dimethyl-5-(trifluoromethyl)tetrahydrofuran-2-carbonyl]amino]pyridine-2-carboxamide]
IC50 [1]: 10 to 100 nM

C[C@H]1[C@@H](c2ccc(F)cc2OC(F)F)[C@H](C(=O)Nc2ccnc(C(N)=O)c2)O[C@@]1(C)C(F)(F)F (stereo in doubt) [Compound 2, rel-(2R,3S,4S,5R)-4-[[3-[2-(difluoromethoxy)-4-fluoro-phenyl]-4,5-dimethyl-5-(trifluoromethyl)tetrahydrofuran-2-carbonyl]amino]pyridine-2-carboxamide]
IC50 [1]: 100 to 1000 nM

COc1c([C@H]2C[C@@](C)(C(F)(F)F)O[C@@H]2C(=O)Nc2ccnc(C(N)=O)c2)ccc(F)c1F (stereo in doubt) [Compound 4, rel-(2S,3R,5S)-4-[[3-(3,4-difluoro-2-methoxy-phenyl)-5-methyl-5-(trifluoromethyl)tetrahydrofuran-2-carbonyl]amino]pyridine-2-carboxamide]
IC50 [1]: > 1000 nM

COc1c([C@@H]2C[C@](C)(C(F)(F)F)O[C@H]2C(=O)Nc2ccnc(C(N)=O)c2)ccc(F)c1F (stereo in doubt) [Compound 5, rel-(2R,3S,5R)-4-[[3-(3,4-difluoro-2-methoxy-phenyl)-5-methyl-5-(trifluoromethyl)tetrahydrofuran-2-carbonyl]amino]pyridine-2-carboxamide]
IC50 [1]: 10 to 100 nM

CNC(=O)c1cc(NC(=O)[C@@H]2O[C@](C)(C(F)(F)F)[C@@H](C)[C@H]2c2ccc(F)c(F)c2OC(F)F)ccn1 (stereo in doubt) [Compound 12, rel-(2R,3S,4S,5S)-4-[[3-[2-(difluoromethoxy)-3,4-difluoro-phenyl]-4,5-dimethyl-5-(trifluoromethyl)tetrahydrofuran-2-carbonyl]amino]-N-methyl-pyridine-2-carboxamide]
IC50 [1]: > 1000 nM

CNC(=O)c1cc(NC(=O)[C@H]2O[C@@](C)(C(F)(F)F)[C@H](C)[C@@H]2c2ccc(F)c(F)c2OC(F)F)ccn1 (stereo in doubt) [Compound 13, rel-(2S,3R,4R,5R)-4-[[3-[2-(difluoromethoxy)-3,4-difluoro-phenyl]-4,5-dimethyl-5-(trifluoromethyl)tetrahydrofuran-2-carbonyl]amino]-N-methyl-pyridine-2-carboxamide]
IC50 [1]: 10 to 100 nM

Cc1c(F)ccc([C@H]2[C@H](C(=O)Nc3ccnc(C(N)=O)c3)O[C@@](C)(C(F)(F)F)[C@H]2C)c1OC(F)F (stereo in doubt) [Compound 16, rel-(2R,3S,4S,5R)-4-[[3-[2-(difluoromethoxy)-4-fluoro-3-methyl-phenyl]-4,5-dimethyl-5-(trifluoromethyl)tetrahydrofuran-2-carbonyl]amino]pyridine-2-carboxamide]
IC50 [1]: > 1000 nM

Cc1c(F)ccc([C@H]2[C@H](C(=O)Nc3ccnc(C(N)=O)c3)O[C@@](C)(C(F)(F)F)[C@H]2C)c1OC(F)F (stereo in doubt) [Compound 17, rel-(2R,3S,4S,5R)-4-[[3-[2-(difluoromethoxy)-4-fluoro-3-methyl-phenyl]-4,5-dimethyl-5-(trifluoromethyl)tetrahydrofuran-2-carbonyl]amino]pyridine-2-carboxamide]
IC50 [1]: < 10 nM

CC[C@@]1(C(F)(F)F)C[C@H](c2ccc(F)c(F)c2OC)[C@@H](C(=O)Nc2ccnc(C(N)=O)c2)O1 (stereo in doubt) [Compound 63, rel-(2S,3R,5S)-4-[[3-(3,4-difluoro-2-methoxy-phenyl)-5-ethyl-5-(trifluoromethyl)tetrahydrofuran-2-carbonyl]amino]pyridine-2-carboxamide]
IC50 [1]: > 1000 nM
